Reference: US8372967B2, “Compounds and methods for modulating expression of GCCR” (Isis Pharmaceuticals, Inc., priority 2006, dated 2013)
Strand notation (5' to 3'): a small letter for the sugar, then the base; units joined by * are phosphorothioate-linked, units joined directly phosphodiester-linked; [ ] holds rarer units or linkages, { } end groups; capitals alone tell only the bases. e = 2'-O-(2-methoxyethyl) (MOE); [5mC] = 5-methylcytosine; d = 2'-deoxy (DNA)

Legend:
Assay type in all cases: in vivo, mouse
SGLT2 mRNA = SGLT2 mRNA in kidney of Balb/c mice, twenty 1-10-1 MOE gapmers, PPS 534 and PPS 553 (Table 74); conditions: i.p. 350 nmol/kg twice per week for two weeks
Protocol: Twenty 1-10-1 MOE gapmers that are complementary to human/monkey/mouse/rat SGLT2 were designed, synthesized and tested in vivo for suppression of SGLT2 mRNA levels in kidney. Data are averages from two experiments in which male 6-week old Balb/c mice were administered intraperitoneal injections of 350 nmol/kg of oligonucleotide, twice per week, over a period of two weeks (a total of four injections). Mice were sacrificed 48 hours following the last administration and evaluated for SGLT2 mRNA levels in kidney. SGLT2 mRNA levels were determined by quantitative real-time PCR analysis according to standard procedures, using two different PCR primer probe sets, primer probe set (PPS) 534 and PPS 553. SGLT2 mRNA levels were normalized to cyclophilin mRNA levels, which were also measured by quantitative real-time PCR.

[1] = ALT & AST levels and toxic effects, GCGR study (Table 32); conditions: C57/BL6 mice, pre-treatment bleed
Protocol: (§1) Eight-week old male C57/BL6 mice (Jackson Laboratory, Bar Harbor, Me.) were administered a single dose of GCGR oligonucleotide by intraperitoneal injection at a concentration of […]. Each dose group consisted of four animals. Shown in Table 31 are the sequences, motifs and conjugates of the GCGR antisense compounds used in this study. Bolded residues indicate 2′-O-methoxyethyl (2′-MOE) moieties. All compounds comprise phosphorothioate internucleoside linkages throughout and each cytosine is replaced with 5-methylcytosine. ISIS 386626, ISIS 386627 and ISIS 386628 further comprise a C16 conjugate group attached to the 2′-O position of the sugar via a diamide linkage (2′-OCH2C(═O)N(H)(CH2)4N(H)C(═O)—(CH2)15CH3). GCGR antisense compounds target published GCGR sequences, including Genbank® Accession No. BC031885.1 (SEQ ID NO: 7).
(§2) Mice were sacrificed 48 hours following injection to determine serum transaminase levels (Table 32); liver, white adipose tissue (WAT), spleen and kidney weight (Table 33); cholesterol, triglyceride and glucose levels (Table 34); GCGR mRNA levels (Tables 35-41); and full-length and total oligonucleotide concentration in liver and kidney (Table 42). Endpoints were assessed using methods described herein and well known to those of ordinary skill in the art. Data is included from a pre-treatment bleed (Pre-Bleed) and post-treatment bleed (Post-Bleed).

[2] = Triglyceride, cholesterol and glucose levels, pre-bleed and post-bleed, GCGR study (Table 34); parameters: Triglyceride (TRIG) Pre-Bleed / Triglyceride (TRIG) Post-Bleed / Cholesterol (CHOL) Pre-Bleed / Cholesterol (CHOL) Post-Bleed / Glucose Pre-Bleed / Glucose Post-Bleed: unit not given here; conditions: for Cholesterol (CHOL) Pre-Bleed / Triglyceride (TRIG) Pre-Bleed: pre-treatment bleed; for Cholesterol (CHOL) Post-Bleed / Triglyceride (TRIG) Post-Bleed: post-treatment bleed
Protocol: as §1, §2

[3] = Organ weights: liver, WAT, spleen, kidney, GCGR study (Table 33); conditions: 48 h
Protocol: as §1, §2

GCGR mRNA = GCGR mRNA levels in liver, C57/BL6 mice, single i.p. dose (Tables 35-41); conditions: for GCGR mRNA levels: Table 35 comparison ISIS 148364 & ISIS 386626
Protocol: Prior to quantitative PCR analysis, primer-probe sets specific to the target gene being measured were evaluated for their ability to be “multiplexed” with a GAPDH amplification reaction. After isolation the RNA is subjected to sequential reverse transcriptase (RT) reaction and real-time PCR, both of which are performed in the same well. RT and PCR reagents were obtained from Invitrogen Life Technologies (Carlsbad, Calif.). […] The RT reaction was carried out by incubation for 30 minutes at 48° C. Following a 10 minute incubation at 95° C. to activate the PLATIN 9M® Taq, 40 cycles of a two-step PCR protocol were carried out: 95° C. for 15 seconds (denaturation) followed by 60° C. for 1.5 minutes (annealing/extension).
170 μL of RiboGreen® working reagent (RiboGreen® reagent diluted 1:350 in 10 mM Tris-HCl, 1 mM EDTA, pH 7.5) was pipetted into a 96-well plate containing 30 μL purified cellular RNA. The plate was read in a CytoFluor® 4000 (PE Applied Biosystems) with excitation at 485 nm and emission at 530 nm.
as §1, §2
To determine whether the phenotypic changes shown above correlated with a decrease in GCGR mRNA, treated animals were evaluated for levels of target mRNA in liver by real time PCR according to methods described herein. Tables 35 to 41 show results from direct comparisons of the antisense compounds targeting GCGR nucleic acid for their effect on target expression. Results are expressed as percent of saline control.

[4] = primer probe set 534, normalized to cyclophilin
[5] = primer probe set 553, normalized to cyclophilin

In the case of “379695 (antisense eG*dG*dA*d[5mC]*dA*d[5mC]*d[5mC]*dG*dT*d[5mC]*dA*eG) [compound 379695]”, the “% change in SGLT2 mRNA vs saline” value (SGLT2 mRNA; [4]) is reported as −52.5 % Saline and the “% change in SGLT2 mRNA vs saline” value (SGLT2 mRNA; [5]) is reported as −64.1 % Saline.

With “379696 (e[5mC]*dA*dG*d[5mC]*dT*dT*d[5mC]*dA*dG*dG*dT*eA; antisense) [compound 379696]” the “% change in SGLT2 mRNA vs saline” value (SGLT2 mRNA; [4]) was −24.6 % Saline and the “% change in SGLT2 mRNA vs saline” value (SGLT2 mRNA; [5]) was −36.2 % Saline.

With “379697 (e[5mC]*dT*dG*dG*d[5mC]*dA*dT*dG*dA*d[5mC]*d[5mC]*eA; antisense) [compound 379697]” the “% change in SGLT2 mRNA vs saline” value (SGLT2 mRNA; [4]) was −32.0 % Saline and the “% change in SGLT2 mRNA vs saline” value (SGLT2 mRNA; [5]) was −46.3 % Saline.

With “379698 (eG*d[5mC]*dA*dG*d[5mC]*d[5mC]*d[5mC]*dA*d[5mC]*d[5mC]*dT*e[5mC]) [compound 379698]” the “% change in SGLT2 mRNA vs saline” value (SGLT2 mRNA; [4]) was −11.8 % Saline and the “% change in SGLT2 mRNA vs saline” value (SGLT2 mRNA; [5]) was −27.0 % Saline.

With “379699 (eG*dG*d[5mC]*dA*dT*dG*dA*dG*d[5mC]*dT*dT*e[5mC]) [compound 379699]” the “% change in SGLT2 mRNA vs saline” value (SGLT2 mRNA; [4]) was −83.5 % Saline and the “% change in SGLT2 mRNA vs saline” value (SGLT2 mRNA; [5]) was −85.8 % Saline.

For “379700 (e[5mC]*d[5mC]*dA*dG*d[5mC]*dA*dT*dG*dA*dG*dT*e[5mC]; antisense) [compound 379700]”, the “% change in SGLT2 mRNA vs saline” value (SGLT2 mRNA; [4]) was −2.8 % Saline and the “% change in SGLT2 mRNA vs saline” value (SGLT2 mRNA; [5]) was −16.4 % Saline.

In the case of “379701 (e[5mC]*d[5mC]*dA*dT*dG*dG*dT*dG*dA*dA*dG*eA) [compound 379701]”, the “% change in SGLT2 mRNA vs saline” value (SGLT2 mRNA; [4]) is reported as −0.3 % Saline and the “% change in SGLT2 mRNA vs saline” value (SGLT2 mRNA; [5]) is reported as −11.9 % Saline.

With “379702 (eG*d[5mC]*dA*d[5mC]*dA*d[5mC]*dA*dG*d[5mC]*dT*dG*e[5mC]) [compound 379702]” the “% change in SGLT2 mRNA vs saline” value (SGLT2 mRNA; [4]) was −87.8 % Saline and the “% change in SGLT2 mRNA vs saline” value (SGLT2 mRNA; [5]) was −89.5 % Saline.

In the case of “379703 (eG*d[5mC]*d[5mC]*dG*dG*dA*dG*dA*d[5mC]*dT*dG*eA; antisense) [compound 379703]”, the “% change in SGLT2 mRNA vs saline” value (SGLT2 mRNA; [4]) is reported as −44.2 % Saline and the “% change in SGLT2 mRNA vs saline” value (SGLT2 mRNA; [5]) is reported as −45.9 % Saline.

In the case of “386626 (antisense GCTTCTCCATCATA; chemistry not fully specified) [compound 386626]”, the “ALT Pre-Bleed” value ([1]; dose group 6.25 mg/kg) is reported as 26 IU/L, the “AST Pre-Bleed” value ([1]; dose group 6.25 mg/kg) is reported as 46 IU/L and the “ALT Pre-Bleed” value ([1]; dose group 12.5 mg/kg) is reported as 28 IU/L. For the same substance, the “AST Pre-Bleed” value ([1]; dose group 12.5 mg/kg) was 44 IU/L, the “ALT Pre-Bleed” value ([1]; dose group 25 mg/kg) was 30 IU/L and the “AST Pre-Bleed” value ([1]; dose group 25 mg/kg) was 44 IU/L. The “ALT Pre-Bleed” value ([1]; dose group 50 mg/kg) was 28 IU/L, the “AST Pre-Bleed” value ([1]; dose group 50 mg/kg) was 48 IU/L and the “Cholesterol (CHOL) Pre-Bleed” value ([2]; 6.25 mg/kg group) was 85. The “Triglyceride (TRIG) Pre-Bleed” value ([2]; 6.25 mg/kg group) was 86, the “Cholesterol (CHOL) Post-Bleed” value ([2]; 6.25 mg/kg single i.p.) was 90 and the “Triglyceride (TRIG) Post-Bleed” value ([2]; 6.25 mg/kg single i.p.) was 162. The “Cholesterol (CHOL) Pre-Bleed” value ([2]; 12.5 mg/kg group) was 82, the “Triglyceride (TRIG) Pre-Bleed” value ([2]; 12.5 mg/kg group) was 100 and the “Cholesterol (CHOL) Post-Bleed” value ([2]; 12.5 mg/kg single i.p.) was 76. The “Triglyceride (TRIG) Post-Bleed” value ([2]; 12.5 mg/kg single i.p.) was 148, the “Cholesterol (CHOL) Pre-Bleed” value ([2]; 25 mg/kg group) was 87 and the “Triglyceride (TRIG) Pre-Bleed” value ([2]; 25 mg/kg group) was 100. For the same substance, the “Cholesterol (CHOL) Post-Bleed” value ([2]; 25 mg/kg single i.p.) was 72, the “Triglyceride (TRIG) Post-Bleed” value ([2]; 25 mg/kg single i.p.) was 187 and the “Cholesterol (CHOL) Pre-Bleed” value ([2]; 50 mg/kg group) was 79. The “Triglyceride (TRIG) Pre-Bleed” value ([2]; 50 mg/kg group) was 87, the “Cholesterol (CHOL) Post-Bleed” value ([2]; 50 mg/kg single i.p.) was 57 and the “Triglyceride (TRIG) Post-Bleed” value ([2]; 50 mg/kg single i.p.) was 163. The “Organ Weights: Kidney” value ([3]; 6.25 mg/kg single i.p.) was 100 % saline control, the “Organ Weights: Liver” value ([3]; 6.25 mg/kg single i.p.) was 100 % saline control and the “Organ Weights: Spleen” value ([3]; 6.25 mg/kg single i.p.) was 95 % saline control. The “Organ Weights: WAT” value ([3]; 6.25 mg/kg single i.p.) was 90 % saline control, the “Organ Weights: Kidney” value ([3]; 12.5 mg/kg single i.p.) was 97 % saline control and the “Organ Weights: Liver” value ([3]; 12.5 mg/kg single i.p.) was 96 % saline control. The “Organ Weights: Spleen” value ([3]; 12.5 mg/kg single i.p.) was 114 % saline control, the “Organ Weights: WAT” value ([3]; 12.5 mg/kg single i.p.) was 73 % saline control and the “Organ Weights: Kidney” value ([3]; 25 mg/kg single i.p.) was 103 % saline control. For the same substance, the “Organ Weights: Liver” value ([3]; 25 mg/kg single i.p.) was 109 % saline control, the “Organ Weights: Spleen” value ([3]; 25 mg/kg single i.p.) was 120 % saline control and the “Organ Weights: WAT” value ([3]; 25 mg/kg single i.p.) was 97 % saline control. For the same substance, the “Organ Weights: Kidney” value ([3]; 50 mg/kg single i.p.) was 104 % saline control, the “Organ Weights: Liver” value ([3]; 50 mg/kg single i.p.) was 112 % saline control and the “Organ Weights: Spleen” value ([3]; 50 mg/kg single i.p.) was 130 % saline control. The “Organ Weights: WAT” value ([3]; 50 mg/kg single i.p.) was 77 % saline control, the “GCGR mRNA levels” value (GCGR mRNA; 6.25 mg/kg) was 7% of saline control and the “GCGR mRNA levels” value (GCGR mRNA; 12.5 mg/kg) was 3% of saline control. For the same substance, the “GCGR mRNA levels” value (GCGR mRNA; 25 mg/kg) was 8% of saline control and the “GCGR mRNA levels” value (GCGR mRNA; 50 mg/kg) was 0% of saline control.

With “ISIS 386626: GCGR short antisense compound with C16 conjugate group at 2′-O via diamide linkage (GCTTCTCCATCATA; chemistry not fully specified)” the “Glucose levels (post-bleed)” value ([2]; C57/BL6 mice, 48 hours after single i.p. dose) was “decreased in a dose-dependent manner” and the “GCGR mRNA expression” value (GCGR mRNA; single i.p. dose 6.25, 12.5, 25 or 50 mg) was “greatest decrease in target mRNA”.
